Experimental data as given in US4870097A, “Pharmaceutical use of derivatives of tryptophan” (priority 1984, dated 1989).

Columns and labels:
[1] = tested on: colon of rabbits stimulated with CCK-8; assay: Antispastic activity in the colon of rabbits stimulated with CCK-8; format: in vivo, rabbit; design: Antispastic activity, experiment 1 / Antispastic activity, experiment 2 / Antispastic activity, experiment 3: unit not given here; settings: CCK 100 ng/kg; for ED50: Oryctolagus cuniculus, iv, three experiments
Experimental: The abdomen of an anaesthetised rabbit is cut open to expose the transverse colon. A balloon full of water is inserted at the point established and connected to a pressure transducer by means of a polyethylene cannula filled with H2 O.
The optimum sensitivity in relation to the physiological contractions is fixed and the products are administered through the femoral veins. Contractions are induced by the administration of 100 ng/kg of CCK.

[2] = tested on: analgesic activity of morphine; assay: Tail Flick Test: increase in the analgesic effect of morphine; format: in vivo, rats; settings: for percentage variation in the latency of the pain sensation, 10' / percentage variation in the latency of the pain sensation, 20' / percentage variation in the latency of the pain sensation, 30' / percentage variation in the latency of the pain sensation, 45' / percentage variation in the latency of the pain sensation, 60' / percentage variation in the latency of the pain sensation, 90' / M(10'-90') average percentage variation: compound 10 mg/kg i.p. + morphine 2 mg/kg (row Morphine: alone); for percentage variation in the latency of the pain sensation, 10' / percentage variation in the latency of the pain sensation, 20' / percentage variation in the latency of the pain sensation, 30' / percentage variation in the latency of the pain sensation, 45' / percentage variation in the latency of the pain sensation, 60' / percentage variation in the latency of the pain sensation, 90': ± S.E.; for M(10'-90') average percentage variation: mean 10'-90'; for Potency ratio relative to morphine alone: rat, in vivo
How it was run: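 Male non-fasted rats, 150-200 g; heat source (75 °C) on tail, latency to tail movement timed, 8 s cut-off. Measured before and 10, 20, 30, 45, 60, 90 min after analgesic dosing; percentage variation per animal, averaged over groups of five.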

[3] = tested on: guinea pig gall bladder contracted with CCK-8; assay: Anti-CCK activity on guinea pig gall bladders in vitro; format: biochemical; settings: CCK-8 10 ng/ml, concentration antagonising 50% of contracting effect
How it was run: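 Longitudinal gall bladder strips in Krebs at 32° C, gassed with O2/CO2 95:5, were contracted with CCK-8 at 10 ng/ml and contractions recorded isometrically via force transducer. ED50 in mcg/ml is the compound concentration antagonising 50% of CCK contraction, derived by regression over at least three experiments.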

| Compound | Antispastic activity, experiment 1 ([1]; 1 mg/kg iv) | Antispastic activity, experiment 2 ([1]; 1 mg/kg iv) | Antispastic activity, experiment 3 ([1]; 1 mg/kg iv) | Antispastic activity, experiment 1 ([1]; 3 mg/kg iv) | Antispastic activity, experiment 2 ([1]; 3 mg/kg iv) | Antispastic activity, experiment 3 ([1]; 3 mg/kg iv) | Antispastic activity, experiment 1 ([1]; 10 mg/kg iv) | Antispastic activity, experiment 2 ([1]; 10 mg/kg iv) | Antispastic activity, experiment 3 ([1]; 10 mg/kg iv) | ED50 [1] | percentage variation in the latency of the pain sensation, 10' [2] | percentage variation in the latency of the pain sensation, 20' [2] | percentage variation in the latency of the pain sensation, 30' [2] | percentage variation in the latency of the pain sensation, 45' [2] | percentage variation in the latency of the pain sensation, 60' [2] | percentage variation in the latency of the pain sensation, 90' [2] | M(10'-90') average percentage variation [2] | Potency ratio relative to morphine alone [2] | Anti CCK-8 activity, ED50 [3] | Antispastic activity, experiment 3 ([1]; 0.3 mg/kg iv) |
| --- | --- | --- | --- | --- | --- | --- | --- | --- | --- | --- | --- | --- | --- | --- | --- | --- | --- | --- | --- | --- |
| O=C(N[C@@H](Cc1c[nH]c2ccccc12)C(=O)O)OCc1ccc(Cl)cc1 [Compound 2] | -10.9 | -16.8 | -38.8 | -31.4 | -56.6 | -41.5 | -85.9 | -74.4 | -90.2 | 4.67 mg/kg | 50.0 ± 14.9% | 25.0 ± 26.0% | 75.6 ± 17.6% | 23.7 ± 19.6% | 41.0 ± 20.3% | 43.6 ± 16.4% | 44.6% | 1.50 | 13.5 µg/mL | – |
| CC(C)c1ccc(C(=O)N[C@@H](Cc2c[nH]c3ccccc23)C(=O)O)cc1 [Compound 20] | -30.8 | -44.2 | -34.7 | -36.0 | -60.3 | -59.0 | -82.5 | -100.0 | – | 3.41 mg/kg | 20.0 ± 12.8% | 33.1 ± 22.0% | 37.6 ± 18.9% | 37.5 ± 18.8% | 54.4 ± 19.3% | 33.2 ± 18.1% | 36.0% | 1.21 | 17.9 µg/mL | -12.8 |
